{"source": "patent US20230054887A1", "about": "“SWEETENING AND TASTE-MASKING COMPOSITIONS, PRODUCTS AND USES THEREOF” (HEALTHTECH BIO ACTIVES, S.L.U., priority 2017, published 2023)", "assay_type_in_all_cases": "in vivo", "key": {"[1]": {"experiment": "Masking bitterness of quinine, test panel, equibitter solution", "conditions": "250 ppm quinine", "procedure": "The bitter masking effect against quinine was assayed, following an analogous procedure to the one used in Example 10 for paracetamol.\nThe following substances were assayed: NHDC alone, beta-cyclodextrin alone, a composition comprising NHDC and beta-cyclodextrin in a molar ratio 1:1 (Example F) and a composition comprising NHDC and beta-cyclodextrin in a molar ratio 1:3 (Example G).\nAnalogously to Example 10, several aqueous solutions were prepared, each containing 250 ppm of quinine and different concentrations of the tested substance, namely, 5, 25, 50, 75 and 100 ppm. For each tested solution, a test panel determined the equibitter quinine solution, and the masking effect was calculated using a formula analogous to formula III (substituting 5000 with […]).\nThe masking synergies between beta-cyclodextrin and NHDC in Examples F and G were calculated following an analogous procedure to the one disclosed in Example 10. Therefore, using the molecular weight of each component, the amounts of beta-cyclodextrin and NHDC contained in each amount of the combinations of Examples F and G were calculated and, then, the antibittering contribution of each component was calculated on the basis of the data of Table 19. The expected masking effect was calculated as the sum of the contributions of each component, and, finally, the masking synergy was calculated (using Formula IV)."}, "[2]": {"experiment": "Sugar (HFCS) substitution in orange soft drink, triangular test by calibrated panel", "conditions": "orange soft drink sweetened with HFCS", "procedure": "A reference orange soft drink sweetened with high fructose corn syrup (HFCS) was prepared, using the ingredients listed in Table 9 (Formula 1). All the percentages in the table are by weight.\nFor preparing the beverages, the following process was followed. The high fructose corn syrup was weighed in a 1 L beaker. The remaining minor ingredients (sodium benzoate, potassium sorbate, citric acid, orange soda colour and orange soda flavour) were separately weighed in small beakers, and water was added to each of the small beakers and mixed until solubilizing each ingredient. Once dissolved, all those minor ingredients were added to the 1 L beaker with the HFCS. The obtained solution was thoroughly mixed and water was added gradually to 1 Kg.\nFor assaying the possible substitution of HFCS with NHDC and with the composition of the present invention (Example B), a 0.1% mother solution of NHDC in water was prepared by gradually adding 0.1 g of NHDC to 99.9 g of water, mixing, and heating to 66° C. during 15 minutes until a yellowish solution was obtained; the solution was then left to cool to room temperature. […]\nMaximum sugar substitution with NHDC was then determined by replacing increasing amounts of HFCS by NHDC and then passing the reference and the prototype through a triangular test by a calibrated panel."}, "[3]": {"experiment": "Sugar substitution in sweetened dark chocolate, calibrated panel", "description": "The percentages in the table are expressed by weight.\nThe reference product (Formula 1 of Table 11) contained a commercial chocolate with 70% cacao content (Lindt®) and 6% of powdered sugar.\nAlong all the assays performed, the goal was to maximize the sucrose substitution while maintaining the same overall taste profile. A calibrated panel was not able to distinguish the reference from the different prototypes tested.\nThe method used for preparing the dark chocolate products of this assay was as follows. Firstly, 1% solution of NHDC in glycerol was prepared by gradually adding 1 g of NHDC to 99 g of glycerol, mixing and heating to 60° C. for 15 minutes, until a transparent solution is obtained. The solution was left to cool off to room temperature. The dark chocolate was weighed and heated to 45° C. and, when the chocolate was completely melted, powdered sugar was added and, optionally, also the 1% NHDC glycerol solution or the composition of Example B, and the mixture was then thoroughly mixed. The mixture was heated until reaching 45° C., then it was let to cool to 30° C., and then it was poured into molds (6 g/piece). The molds with the chocolate were put in the fridge for a quicker hardening."}}}
{"smiles": "COc1ccc(CCC(=O)c2c(O)cc(O[C@@H]3O[C@H](CO)[C@@H](O)[C@H](O)[C@H]3O[C@@H]3O[C@@H](C)[C@H](O)[C@@H](O)[C@H]3O)cc2O)cc1O", "note": "[NHDC, 1-[4-[[2-O-(6-Deoxy-α-L-mannopyranosyl)-β-D-glucopyranosyl]oxy]-2,6-dihydroxyphenyl]-3-(3-hydroxy-4-methoxyphenyl)propan-1-one]", "values": [{"measurement": "Masking effect (real)", "setting": "[1]; tested substance 5 ppm", "result": 5.00, "unit": "%"}, {"measurement": "Masking effect (real)", "setting": "[1]; tested substance 25 ppm", "result": 13.33, "unit": "%"}, {"measurement": "Masking effect (real)", "setting": "[1]; tested substance 50 ppm", "result": 30.00, "unit": "%"}, {"measurement": "Masking effect (real)", "setting": "[1]; tested substance 75 ppm", "result": 48.33, "unit": "%"}, {"measurement": "Masking effect (real)", "setting": "[1]; tested substance 100 ppm", "result": 50.00, "unit": "%"}, {"measurement": "Amount needed to obtain 10% sugar substitution", "setting": "[2]", "result": 10, "unit": "ppm"}, {"measurement": "Maximum sugar substitution without any noticeable difference in a triangular test", "setting": "[2]", "result": 10, "unit": "%"}, {"measurement": "Amount used for the maximum sugar substitution", "setting": "[3]", "result": 3, "unit": "ppm"}, {"measurement": "Maximum sugar substitution without changing the taste profile", "setting": "[3]; reference with 6% powdered sugar", "result": 10, "unit": "%"}]}
